In patent US20080045419A1, “Screening Assay” (priority 2006, published 2008):
Entries after “also recorded” stand apart in the source; their conditions may differ.

Tested on: Rad17 self-interaction (Rad17/Rad17)
Test: DIPI assay (DNA-damage-induced increased protein interaction), two-hybrid colony growth on -His medium
Format: cell-based, Saccharomyces cerevisiae
Conditions: for Rad17 self-interaction response in DIPI assay (colony growth on -His medium): wild-type reporter strain CG1945, pCAD1-Rad17/pGBT9-Rad17, plate assay
From the text: A reporter strain is co-transformed with Rad17-Gal4-DNA-binding-domain and Rad17-Gal4-transcriptional-activation-domain fusions (“bait” and “prey” plasmids). Enhanced protein-protein interaction is visualized by activation of a Gal4responsive chromosomal reporter gene construct required for histidine synthesis (HIS3) (FIG. 1).
These cells are exposed to a DNA-damaging agent in form of a gradient on a histidine-omission plate. […] It should also be mentioned that the use of a blue color marker (LacZ gene) is possible. It is not unusual that the context of a promoter affects the specific interaction and may be easily addressed by switching to one of a wide variety or readily available commercial and non-commercial expression systems.
[pCAD1-Rad17/pGBT9-Rad17], respectively. […] Responses in a wild-type reporter strain (WT, left two plates) and a mutant deleted for topoisomerase I (top1δ, right) are compared. Cells of the reporter strain (CG1945), previously co-transformed with Rad17 bait/prey Gal4-fusions (pCAD1-Rad17/pGBT9-Rad17) were plated as indicated. The genotoxic agent CPT or DMSO (solvent control) was applied on a filter paper.
Using manual replicating on large petri dishes, these were transferred to -His plates that had been inoculated with cells of a reporter strain, co-transformed with Rad17 bait/prey plasmids as described.
DIPI assay was performed in a high-throughput mode. The Petri dish assay was adapted to the 96 well plate format in order to use conventional high-throughput machinery. Two protocols were explored (FIG. 4). In both cases, the selective agar medium lacking leucine, tryptophan and histidine was poured in the plate wells. In protocol 1, cell suspension was pipeted on top of the plate and, after drying, a sample of CPT. In protocol 2, cells were mixed with agar and pipeted, resulting in a cell-containing agar layer. CPT was added on top. After 3-4 days, the plates were evaluated for colony growth.
All cells will be exposed to a CPT concentration that leads to some low amount of colony formation on selective medium. Briefly, the haploid two-hybrid reporter strain CG1945 (4) is co-transformed with plasmids pGBT9Rad17 and pCAD1-Rad17. […] The selected co-transformant is grown up to stationary phase in yeast synthetic medium (SM) without tryptophan and leucine to retain both plasmids. Incubation period is typically two days at 30° C. with shaking. The standard recipe for yeast SM calls for 2% dextrose, 0.67% yeast nitrogen base with ammonium sulfate/without amino acids (e.g. from US Biological) and a -Trp-Leu amino acid dropout mix (Qbiogene, Inc.).

## CC[C@@]1(OC(=O)CN)C(=O)OCc2c1cc1n(c2=O)Cc2cc3ccccc3nc2-1.Cl [NSC606985, glycine 4-ethyl-3,4,12,14-tetrahydro-3,14-dioxo-1H-pyrano[3′, 4′:6,7]indolizino[1,2-b]quinolin-4-yl ester, (S)-monohydrochloride]
  Rad17 self-interaction response in DIPI assay (colony growth on -His medium): increasing Rad17 self-interaction

## CC[C@@]1(O)C(=O)OCc2c1cc1n(c2=O)Cc2cc3ccccc3nc2-1 [camptothecin]
96 well plate, after 3-4 days, compared to control (DMSO), listed as CPT
  number of colonies in DIPI assay, 96 well plate format: number of colonies increased significantly; also recorded: number of colonies is increased
top1δ background (topoisomerase I deleted)
  Rad17 homomeric interaction response in DIPI assay: absence of increased homomeric Rad17 interaction
  Rad17 self-interaction response in DIPI assay (colony growth on -His medium): very responsive; also recorded: increasing Rad17 self-interaction
Listed as CPT
  Rad17 self-interaction response in DIPI assay (colony growth on -His medium): positive CPT response
